Structures are written as SMILES.

One assay deals with influenza virus A/Puerto Rico/8/34 (H1N1). Nature of the assay: microbe, parasite or virus in culture. The class given is cell-based. The note with it: H1N1, MDCK, read-out: plaque IC50.
The term IC50 denotes the point on the concentration scale where inhibition reaches its midpoint. For the molecule `O=C(NCCOc1ccccc1)c1nc([C@@H]2CCCN2C(=O)CCc2ccccc2Cl)[nH]c(=O)c1O` [Compound 9b], the IC50 was determined as 6.6 µM.

Regarding `O=C(NCCOc1ccccc1)c1nc([C@@H]2CCCN2C(=O)CSc2ccccc2Cl)[nH]c(=O)c1O` [Compound 9k], the IC50 amounted to 7.2 µM.

Take `COc1ccc(S(=O)(=O)CCNC(=O)c2nc([C@@H]3CCCN3C(=O)CSc3ccccc3Cl)[nH]c(=O)c2O)cc1` [Compound 10g]: the 50% inhibitory concentration (IC50) worked out at 9.1 µM.

The target in the next assay is wild type PAN protein (PA endonuclease domain) (Influenza A virus, UniProt C3W5S0). In words: biochemical. The class given is binding. The note with it: FP Ki.
As a reminder, the Ki is the dissociation constant of the complex between target and ligand, obtained from inhibition or displacement. The molecule `COCCNC(=O)c1nc([C@@H]2CCCN2C(=O)COc2ccccc2)[nH]c(=O)c1O` [Compound 6e] registered a Ki of 1.6 µM.

Regarding `O=C(NCCc1ccccc1)c1nc([C@@H]2CCCN2C(=O)c2cc(Cl)ncc2Cl)[nH]c(=O)c1O` [Compound 7d], the Ki was 0.1 ± 0.02 µM.

For the molecule `O=C(NCCc1ccccc1)c1nc([C@@H]2CCCN2C(=O)c2ccnc(Cl)c2)[nH]c(=O)c1O` [Compound 7e], the affinity, expressed as Ki, was 17.5 ± 1.1 µM.

For `O=C(NCc1cccc(C(F)(F)F)c1)c1nc([C@@H]2CCCN2C(=O)c2c(Cl)cncc2Cl)[nH]c(=O)c1O` [Compound 8a], the Ki worked out at 0.16 ± 0.04 µM.

The molecule `Cn1c([C@@H]2CCCN2C(=O)c2c(Cl)cncc2Cl)nc(C(=O)NCCc2ccccc2)c(O)c1=O` [Compound 8b] registered an inhibition constant (Ki) of 0.07 ± 0.02 µM.

`O=C(NCCc1cccc(C(F)(F)F)c1)c1nc([C@@H]2CCCN2C(=O)c2c(Cl)cncc2Cl)[nH]c(=O)c1O` [Compound 8c] showed a Ki of 0.1 ± 0.03 µM.

Consider `O=C(NCCOc1ccccc1)c1nc([C@@H]2CCCN2C(=O)c2c(Cl)cncc2Cl)[nH]c(=O)c1O` [Compound 8d], for which the affinity, expressed as Ki, was 0.05 ± 0.02 µM.

The molecule `Cn1c([C@@H]2CCCN2C(=O)c2c(Cl)cncc2Cl)nc(C(=O)NC2Cc3ccccc3C2)c(O)c1=O` [Compound 8g] displayed a Ki of 1.7 ± 0.1 µM.

On to `O=C(NCC1Cc2ccccc2C1)c1nc([C@@H]2CCCN2C(=O)c2c(Cl)cncc2Cl)[nH]c(=O)c1O` [Compound 8h], for which affinity was put at a Ki of 0.1 ± 0.03 µM.

In turn, `O=C(NCCc1ccccc1)c1nc([C@@H]2CCCN2C(=O)CCc2ccccc2Cl)[nH]c(=O)c1O` [Compound 9a] showed a Ki of 1.2 ± 0.2 µM.

In the case of `O=C(NCCc1ccccc1)c1nc([C@@H]2CCCN2C(=O)CCc2ccccc2F)[nH]c(=O)c1O` [Compound 9c], affinity was put at a Ki of 3.7 ± 0.8 µM.

For the molecule `O=C(NCCOc1ccccc1)c1nc([C@@H]2CCCN2C(=O)CCc2ccccc2F)[nH]c(=O)c1O` [Compound 9d], the Ki turned out to be 0.5 ± 0.1 µM.

`O=C(NCCc1ccccc1)c1nc([C@@H]2CCCN2C(=O)COc2ccccc2F)[nH]c(=O)c1O` [Compound 9g] yielded a Ki of 1.3 ± 0.4 µM.

`O=C(NCCOc1ccccc1)c1nc([C@@H]2CCCN2C(=O)COc2ccccc2F)[nH]c(=O)c1O` [Compound 9h] showed a Ki of 0.44 ± 0.03 µM.

`O=C(NCCc1ccccc1)c1nc([C@@H]2CCCN2C(=O)CSc2ccccc2Cl)[nH]c(=O)c1O` [Compound 9i]: the affinity, expressed as Ki, was 0.29 ± 0.04 µM.

For `O=C(NCCc1ccccc1)c1nc([C@@H]2CCCN2C(=O)C[S+]([O-])c2ccccc2Cl)[nH]c(=O)c1O` (stereo partly shown) [Compound 9j], the Ki worked out at 0.4 ± 0.07 µM.

Molecule `O=C(NCCc1ccccc1)c1nc([C@@H]2CCCN2C(=O)CSc2ccccc2F)[nH]c(=O)c1O` [Compound 9l] registered a Ki of 1.2 ± 0.1 µM.

In the case of `O=C(NCCOc1ccccc1)c1nc([C@@H]2CCCN2C(=O)CSc2ccccc2F)[nH]c(=O)c1O` [Compound 9m], the affinity, expressed as Ki, was 0.24 ± 0.03 µM.

On to `O=C(NCCSc1ccccc1)c1nc([C@@H]2CCCN2C(=O)COc2ccccc2Cl)[nH]c(=O)c1O` [Compound 10a], for which the affinity, expressed as Ki, was 0.56 ± 0.02 µM.

`O=C(NCC[S+]([O-])c1ccccc1)c1nc([C@@H]2CCCN2C(=O)COc2ccccc2Cl)[nH]c(=O)c1O` (stereo partly shown) [Compound 10c] displayed an inhibition constant Ki of 0.2 ± 0.03 µM.

As for `O=C(NCCS(=O)(=O)c1ccccc1)c1nc([C@@H]2CCCN2C(=O)COc2ccccc2Cl)[nH]c(=O)c1O` [Compound 10d], the affinity, expressed as Ki, was 0.046 ± 0.001 µM.

For the molecule `COc1ccc(S(=O)(=O)CCNC(=O)c2nc([C@@H]3CCCN3C(=O)COc3ccccc3Cl)[nH]c(=O)c2O)cc1` [Compound 10f], the Ki was 0.038 ± 0.009 µM.

Turning to `O=C(NC1Cc2ccccc2C1)c1nc([C@@H]2CCCN2C(=O)COc2ccccc2Cl)[nH]c(=O)c1O` [Compound 10h], the Ki is 0.47 ± 0.07 µM.

In turn, `O=C(NCc1cc2ccccc2o1)c1nc([C@@H]2CCCN2C(=O)CSc2ccccc2Cl)[nH]c(=O)c1O` [Compound 10l] yielded an inhibition constant Ki of 1 ± 0.2 µM.

Molecule `O=C(NCCc1ccncc1)c1nc([C@@H]2CCCN2C(=O)COc2ccccc2F)[nH]c(=O)c1O` [Compound 10n] yielded a Ki of 0.256 ± 0.007 µM.

The assay is the same for the next values; noted with them: WT FP Ki.
Consider `O=C(NCCOc1ccccc1)c1nc([C@@H]2CCCN2C(=O)COc2ccccc2Cl)[nH]c(=O)c1O` [Compound 9f], for which the affinity corresponds to a Ki of 0.5 ± 0.2 µM.

`O=C(NCCc1ccccn1)c1nc([C@@H]2CCCN2C(=O)COc2ccccc2F)[nH]c(=O)c1O` [Compound 10m] displayed a Ki of 0.4 ± 0.2 µM.

Still in this assay, the particulars now being: read-out: WT FP Ki.
Regarding `O=C(O)C(=O)CC(=O)c1ccccc1` [DPBA, reference compound], the Ki came out at 3.7 ± 0.5 µM.

These data come from PMC5719402, “Protein-Structure Assisted Optimization of 4,5-Dihydroxypyrimidine-6-Carboxamide Inhibitors of Influenza Virus Endonuclease” (Scientific Reports, 2017).
